Results as given in the kinase profiling compilation of Christmann-Franck et al. (2016).
Where “and” joins values, the source holds several entries; their conditions need not be identical. Equal values may be shown once.

Tests used:
Assay in all cases: KINOMEscan competition binding
Conditions in all cases: compound 10.0 µM
[1] = target: EPHA2 (human) (UniProt P29317)
[2] = target: TXK (human) (UniProt P42681)
[3] = test system: FLT3 (human), P36888 [D835H]
[4] = target: STK4 (human) (UniProt Q13043)
[5] = target: FLT4 (human) (UniProt P35916)
[6] = target: PRKG1 (human) (UniProt Q13976)
[7] = target: NEK6 (human) (UniProt Q9HC98)
[8] = test system: KIT (human), P10721 [L576P]
[9] = target: PRKACA (human) (UniProt P17612)
[10] = target: MAP3K7 (human) (UniProt O43318)
[11] = target: PIM3 (human) (UniProt Q86V86)
[12] = target: ERBB3 (human) (UniProt P21860)
[13] = target: TAOK1 (human) (UniProt Q7L7X3)
[14] = target: STK38 (human) (UniProt Q15208)
[15] = target: RPS6KA4 KD2 (human) (UniProt O75676)
[16] = target: TNNI3K (human) (UniProt Q59H18)
[17] = target: PIK3C2B (human) (UniProt O00750)
[18] = test system: RET (human), P07949 [V804M]
[19] = target: TNK1 (human) (UniProt Q13470)
[20] = target: ACVRL1 (human) (UniProt P37023)
[21] = target: CDK17 (human) (UniProt Q00537)
[22] = target: DMPK (human) (UniProt Q09013)
[23] = target: STK24 (human) (UniProt Q9Y6E0)
[24] = target: PDPK1 (human) (UniProt O15530)
[25] = target: CDK7 (human) (UniProt P50613)
[26] = target: CSNK1A1L (human) (UniProt Q8N752)
[27] = target: MARK2 (human) (UniProt Q7KZI7)
[28] = target: FGFR1 (human) (UniProt P11362)
[29] = target: STK3 (human) (UniProt Q13188)
[30] = target: PIP5K1A (human) (UniProt Q99755)
[31] = target: MAP3K4 (human) (UniProt Q9Y6R4)
[32] = target: NEK5 (human) (UniProt Q6P3R8)
[33] = target: NUAK1 (human) (UniProt O60285)
[34] = target: PDGFRB (human) (UniProt P09619)
[35] = target: TLK1 (human) (UniProt Q9UKI8)
[36] = target: TYRO3 (human) (UniProt Q06418)
[37] = target: PIK3CG (human) (UniProt P48736)
[38] = target: CAMK1G (human) (UniProt Q96NX5)
[39] = target: PIP4K2C (human) (UniProt Q8TBX8)

Chain of RET (human), P07949 [V804M] (P07949 whole entry V804M, looked up): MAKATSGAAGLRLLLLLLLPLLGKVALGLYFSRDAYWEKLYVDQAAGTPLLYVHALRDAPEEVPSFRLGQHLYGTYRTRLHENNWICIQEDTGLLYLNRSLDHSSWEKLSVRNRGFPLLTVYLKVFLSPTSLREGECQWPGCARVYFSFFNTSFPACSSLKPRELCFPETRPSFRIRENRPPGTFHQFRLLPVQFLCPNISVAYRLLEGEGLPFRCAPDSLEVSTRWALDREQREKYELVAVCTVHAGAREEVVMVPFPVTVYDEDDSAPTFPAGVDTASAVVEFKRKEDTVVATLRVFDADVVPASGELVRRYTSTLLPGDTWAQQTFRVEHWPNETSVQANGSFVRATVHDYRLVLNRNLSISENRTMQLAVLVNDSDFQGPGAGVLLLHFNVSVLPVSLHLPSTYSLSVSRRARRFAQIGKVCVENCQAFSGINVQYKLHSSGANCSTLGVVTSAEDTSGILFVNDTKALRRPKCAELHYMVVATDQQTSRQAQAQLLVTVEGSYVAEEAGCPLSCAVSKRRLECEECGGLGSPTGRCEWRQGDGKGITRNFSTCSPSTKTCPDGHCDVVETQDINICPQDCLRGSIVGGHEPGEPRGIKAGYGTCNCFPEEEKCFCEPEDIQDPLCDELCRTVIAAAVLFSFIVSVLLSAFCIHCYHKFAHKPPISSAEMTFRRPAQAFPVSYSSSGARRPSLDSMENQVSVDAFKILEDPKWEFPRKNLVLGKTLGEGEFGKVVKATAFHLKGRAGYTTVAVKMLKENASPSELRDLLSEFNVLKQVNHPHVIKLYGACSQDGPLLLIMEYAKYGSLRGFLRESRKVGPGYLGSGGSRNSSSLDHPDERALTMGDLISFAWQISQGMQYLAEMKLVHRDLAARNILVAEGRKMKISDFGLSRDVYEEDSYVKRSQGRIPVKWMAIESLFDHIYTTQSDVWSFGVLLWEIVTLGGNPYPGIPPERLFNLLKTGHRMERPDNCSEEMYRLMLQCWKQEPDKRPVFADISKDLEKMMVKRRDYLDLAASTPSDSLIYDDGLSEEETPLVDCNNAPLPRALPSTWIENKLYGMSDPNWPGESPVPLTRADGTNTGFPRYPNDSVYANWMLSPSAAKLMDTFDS
Chain of STK24 (human) (Q9Y6E0 whole entry, looked up): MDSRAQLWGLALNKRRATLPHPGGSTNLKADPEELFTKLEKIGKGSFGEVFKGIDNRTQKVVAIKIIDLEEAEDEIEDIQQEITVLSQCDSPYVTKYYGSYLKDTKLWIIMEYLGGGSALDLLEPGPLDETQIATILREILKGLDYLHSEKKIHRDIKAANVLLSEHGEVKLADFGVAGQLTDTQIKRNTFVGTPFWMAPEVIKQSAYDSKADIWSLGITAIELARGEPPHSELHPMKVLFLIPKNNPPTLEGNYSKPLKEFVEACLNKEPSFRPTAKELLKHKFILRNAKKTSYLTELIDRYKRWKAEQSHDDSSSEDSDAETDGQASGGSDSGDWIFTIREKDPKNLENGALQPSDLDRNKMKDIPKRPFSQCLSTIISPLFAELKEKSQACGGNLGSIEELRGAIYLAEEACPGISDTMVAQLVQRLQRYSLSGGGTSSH
Chain of NUAK1 (human) (O60285 whole entry, looked up): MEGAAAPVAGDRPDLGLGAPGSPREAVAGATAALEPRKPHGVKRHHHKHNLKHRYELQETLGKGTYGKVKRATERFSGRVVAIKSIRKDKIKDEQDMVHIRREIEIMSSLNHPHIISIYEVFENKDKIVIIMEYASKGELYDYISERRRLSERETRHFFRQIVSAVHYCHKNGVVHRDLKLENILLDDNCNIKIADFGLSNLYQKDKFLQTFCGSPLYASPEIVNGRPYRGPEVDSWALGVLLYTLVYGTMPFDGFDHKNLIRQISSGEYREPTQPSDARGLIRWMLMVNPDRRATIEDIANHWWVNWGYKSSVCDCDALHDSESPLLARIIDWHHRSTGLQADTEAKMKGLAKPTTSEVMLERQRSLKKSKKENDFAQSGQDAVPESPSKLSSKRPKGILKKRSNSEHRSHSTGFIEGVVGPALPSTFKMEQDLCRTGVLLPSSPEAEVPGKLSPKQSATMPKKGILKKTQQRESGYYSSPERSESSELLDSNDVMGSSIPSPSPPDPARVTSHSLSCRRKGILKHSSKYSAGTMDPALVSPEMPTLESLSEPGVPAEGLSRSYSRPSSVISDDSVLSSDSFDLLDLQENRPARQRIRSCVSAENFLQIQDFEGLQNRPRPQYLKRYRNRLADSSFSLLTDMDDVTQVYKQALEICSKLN
Chain of FLT4 (human) (P35916 whole entry, looked up): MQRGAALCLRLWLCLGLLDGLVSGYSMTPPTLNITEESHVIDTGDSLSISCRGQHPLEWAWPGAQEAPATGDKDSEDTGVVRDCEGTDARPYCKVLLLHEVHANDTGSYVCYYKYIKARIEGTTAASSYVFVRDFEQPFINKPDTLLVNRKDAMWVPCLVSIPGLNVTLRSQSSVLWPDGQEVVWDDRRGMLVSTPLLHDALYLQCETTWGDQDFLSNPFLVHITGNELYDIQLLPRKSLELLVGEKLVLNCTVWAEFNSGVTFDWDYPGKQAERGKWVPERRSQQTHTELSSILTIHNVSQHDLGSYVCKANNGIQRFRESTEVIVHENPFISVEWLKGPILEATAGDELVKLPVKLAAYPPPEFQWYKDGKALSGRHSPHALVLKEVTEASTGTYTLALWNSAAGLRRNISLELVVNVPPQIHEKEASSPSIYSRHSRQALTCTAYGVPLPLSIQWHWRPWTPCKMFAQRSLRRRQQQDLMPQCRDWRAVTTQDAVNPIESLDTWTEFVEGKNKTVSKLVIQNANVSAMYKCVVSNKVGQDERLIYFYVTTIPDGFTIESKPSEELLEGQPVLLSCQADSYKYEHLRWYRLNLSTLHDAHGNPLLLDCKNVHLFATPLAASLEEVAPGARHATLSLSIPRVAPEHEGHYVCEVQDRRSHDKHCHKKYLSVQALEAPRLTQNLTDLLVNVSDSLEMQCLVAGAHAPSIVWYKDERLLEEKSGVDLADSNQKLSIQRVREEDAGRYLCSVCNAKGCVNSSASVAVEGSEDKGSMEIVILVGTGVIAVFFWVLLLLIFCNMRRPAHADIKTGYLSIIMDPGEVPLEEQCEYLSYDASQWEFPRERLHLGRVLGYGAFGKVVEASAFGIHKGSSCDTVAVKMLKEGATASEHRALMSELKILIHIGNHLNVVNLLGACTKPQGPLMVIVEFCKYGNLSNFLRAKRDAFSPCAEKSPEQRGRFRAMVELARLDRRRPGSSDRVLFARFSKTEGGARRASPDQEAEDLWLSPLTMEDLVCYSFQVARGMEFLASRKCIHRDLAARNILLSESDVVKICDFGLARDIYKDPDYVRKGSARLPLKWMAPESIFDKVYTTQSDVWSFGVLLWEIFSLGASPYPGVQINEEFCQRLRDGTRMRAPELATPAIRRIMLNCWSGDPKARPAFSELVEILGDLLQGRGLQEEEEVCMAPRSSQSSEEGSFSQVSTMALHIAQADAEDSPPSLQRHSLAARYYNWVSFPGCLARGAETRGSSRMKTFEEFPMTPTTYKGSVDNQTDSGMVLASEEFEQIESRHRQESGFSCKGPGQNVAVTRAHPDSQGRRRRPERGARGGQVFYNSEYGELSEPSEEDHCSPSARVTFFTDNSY
Chain of TAOK1 (human) (Q7L7X3 whole entry, looked up): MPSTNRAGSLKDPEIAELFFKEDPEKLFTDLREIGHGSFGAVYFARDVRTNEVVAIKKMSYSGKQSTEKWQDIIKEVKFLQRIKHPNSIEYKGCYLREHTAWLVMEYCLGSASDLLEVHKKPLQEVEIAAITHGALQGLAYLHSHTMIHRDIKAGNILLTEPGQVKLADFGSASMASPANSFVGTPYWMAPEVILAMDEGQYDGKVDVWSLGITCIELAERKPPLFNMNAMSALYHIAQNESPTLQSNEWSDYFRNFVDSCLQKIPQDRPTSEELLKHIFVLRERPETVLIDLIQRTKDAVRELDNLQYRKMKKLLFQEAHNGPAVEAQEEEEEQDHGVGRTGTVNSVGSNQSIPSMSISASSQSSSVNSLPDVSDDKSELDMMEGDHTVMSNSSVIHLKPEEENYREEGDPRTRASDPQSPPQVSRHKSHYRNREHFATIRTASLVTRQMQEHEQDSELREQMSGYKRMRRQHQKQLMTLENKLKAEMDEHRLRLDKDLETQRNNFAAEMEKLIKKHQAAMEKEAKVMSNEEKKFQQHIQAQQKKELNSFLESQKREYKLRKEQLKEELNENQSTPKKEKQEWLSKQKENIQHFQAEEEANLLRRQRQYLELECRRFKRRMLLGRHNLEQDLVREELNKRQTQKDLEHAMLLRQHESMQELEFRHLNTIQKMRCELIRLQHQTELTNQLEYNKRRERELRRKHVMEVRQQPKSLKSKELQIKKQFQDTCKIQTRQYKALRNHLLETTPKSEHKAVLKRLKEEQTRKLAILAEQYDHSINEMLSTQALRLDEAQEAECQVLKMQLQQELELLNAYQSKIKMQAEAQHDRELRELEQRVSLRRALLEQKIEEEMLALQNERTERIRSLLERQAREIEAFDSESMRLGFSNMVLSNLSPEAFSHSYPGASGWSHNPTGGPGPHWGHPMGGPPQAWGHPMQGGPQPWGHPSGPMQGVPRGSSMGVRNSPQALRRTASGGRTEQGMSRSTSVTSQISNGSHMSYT

Row | kinase still bound, per cent of control [1] [%] | kinase still bound, per cent of control [2] [%] | kinase still bound, per cent of control [3] [%] | kinase still bound, per cent of control [4] [%] | kinase still bound, per cent of control [5] [%] | kinase still bound, per cent of control [6] [%] | kinase still bound, per cent of control [7] [%] | kinase still bound, per cent of control [8] [%] | kinase still bound, per cent of control [9] [%] | kinase still bound, per cent of control [10] [%] | kinase still bound, per cent of control [11] [%] | kinase still bound, per cent of control [12] [%] | kinase still bound, per cent of control [13] | kinase still bound, per cent of control [14] [%] | kinase still bound, per cent of control [15] [%] | kinase still bound, per cent of control [17] [%] | kinase still bound, per cent of control [19] [%] | kinase still bound, per cent of control [20] [%] | kinase still bound, per cent of control [21] [%] | kinase still bound, per cent of control [22] [%] | Structure (SMILES) | also measured
1 | 100 | 100 | 100 | 100 | 100 | 100 | 100 | 100 | 100 | 100 | 100 | 100 | 100% | 100 | 100 | 22 | 100 | 100 | 100 | 100 | CS(=O)(=O)N1CCN(Cc2cc3nc(-c4cccc5[nH]ncc45)nc(N4CCOCC4)c3s2)CC1 | kinase still bound, per cent of control [16]: 100%; kinase still bound, per cent of control [18]: 100%; kinase still bound, per cent of control [23]: 100%; kinase still bound, per cent of control [24]: 100%; kinase still bound, per cent of control [25]: 100%; kinase still bound, per cent of control [26]: 100%; kinase still bound, per cent of control [27]: 100%; kinase still bound, per cent of control [28]: 100%; kinase still bound, per cent of control [29]: 100%; kinase still bound, per cent of control [30]: 100%; kinase still bound, per cent of control [31]: 100%; kinase still bound, per cent of control [32]: 100%; kinase still bound, per cent of control [33]: 100%; kinase still bound, per cent of control [34]: 100%; kinase still bound, per cent of control [35]: 100%; kinase still bound, per cent of control [36]: 100%
2 | 100 | 100 | 100 | 100 | 100 | 100 | 100 | 2.3 | 100 | 100 | 100 | 100 | 0.25% and 2.9% | 100 | 100 | 100 | 100 | 100 | 100 | 100 | CCN(CC)CCCCNc1ncc2c(n1)N(C)C(=O)N(c1c(Cl)c(OC)cc(OC)c1Cl)C2 | kinase still bound, per cent of control [37]: 100%; kinase still bound, per cent of control [38]: 100%; kinase still bound, per cent of control [16]: 100%; kinase still bound, per cent of control [18]: 100%; kinase still bound, per cent of control [23]: 13%; kinase still bound, per cent of control [24]: 100%; kinase still bound, per cent of control [25]: 100%; kinase still bound, per cent of control [26]: 100%; kinase still bound, per cent of control [27]: 100%; kinase still bound, per cent of control [28]: 0.25%; kinase still bound, per cent of control [29]: 100%; kinase still bound, per cent of control [30]: 100%; kinase still bound, per cent of control [31]: 5.3%; kinase still bound, per cent of control [32]: 100%; kinase still bound, per cent of control [33]: 100%; kinase still bound, per cent of control [34]: 21%; kinase still bound, per cent of control [35]: 100%; kinase still bound, per cent of control [36]: 100%
3 | 100 | 100 | 100 | 100 | 100 | 100 | 100 | 100 | 100 | 100 | 100 | 100 | 17% and 4.8% | 100 | 100 | 100 | 0.4 | 100 | 100 | 100 | COc1cc(N2CCN(C)CC2)ccc1Nc1ncc2c(n1)N(C)c1ccccc1C(=O)N2C | kinase still bound, per cent of control [37]: 31%; kinase still bound, per cent of control [38]: 100%; kinase still bound, per cent of control [16]: 100%; kinase still bound, per cent of control [18]: 100%; kinase still bound, per cent of control [23]: 100%; kinase still bound, per cent of control [24]: 100%; kinase still bound, per cent of control [25]: 100%; kinase still bound, per cent of control [26]: 100%; kinase still bound, per cent of control [27]: 100%; kinase still bound, per cent of control [28]: 100%; kinase still bound, per cent of control [29]: 100%; kinase still bound, per cent of control [30]: 100%; kinase still bound, per cent of control [31]: 100%; kinase still bound, per cent of control [32]: 100%; kinase still bound, per cent of control [33]: 7.6%; kinase still bound, per cent of control [34]: 100%; kinase still bound, per cent of control [35]: 100%; kinase still bound, per cent of control [36]: 100%

Row | Structure (SMILES) | kinase still bound, per cent of control [1] [%] | kinase still bound, per cent of control [2] [%] | kinase still bound, per cent of control [3] [%] | kinase still bound, per cent of control [4] [%] | kinase still bound, per cent of control [5] [%] | kinase still bound, per cent of control [6] [%] | kinase still bound, per cent of control [7] [%] | kinase still bound, per cent of control [8] [%] | kinase still bound, per cent of control [9] [%] | kinase still bound, per cent of control [10] [%] | kinase still bound, per cent of control [11] [%] | kinase still bound, per cent of control [12] [%] | kinase still bound, per cent of control [13] | kinase still bound, per cent of control [14] [%] | kinase still bound, per cent of control [15] [%] | kinase still bound, per cent of control [17] [%] | kinase still bound, per cent of control [19] [%] | kinase still bound, per cent of control [20] [%] | kinase still bound, per cent of control [21] [%] | kinase still bound, per cent of control [22] [%] | also measured
4 | C[C@@H](Oc1cc(-c2cnn(C3CCNCC3)c2)cnc1N)c1c(Cl)ccc(F)c1Cl | 1.5 | 5.9 | 6.8 | 3.9 | 100 | 100 | 27 | 43 | 100 | 8.2 | 100 | 81 | 1.2% | 68 | 50 | 46 | 7.1 | 45 | 62 | 1.6 | kinase still bound, per cent of control [39]: 100%; kinase still bound, per cent of control [37]: 100%; kinase still bound, per cent of control [38]: 76%; kinase still bound, per cent of control [23]: 44%; kinase still bound, per cent of control [24]: 100%; kinase still bound, per cent of control [25]: 1.2%; kinase still bound, per cent of control [26]: 100%; kinase still bound, per cent of control [27]: 20%; kinase still bound, per cent of control [28]: 46%; kinase still bound, per cent of control [29]: 0%; kinase still bound, per cent of control [30]: 0.1%; kinase still bound, per cent of control [31]: 34%; kinase still bound, per cent of control [32]: 63%; kinase still bound, per cent of control [33]: 0.7%; kinase still bound, per cent of control [34]: 44%; kinase still bound, per cent of control [35]: 61%
